Assay results: patent US20260183311A1, “COMPOUNDS DERIVED FROM STEROLS FOR THE TREATMENT OF A DISEASE ASSOCIATED WITH A MITOCHONDRIAL DEFICIT” (DENDROGENIX, priority 2022, published 2026)
“Also recorded” adds a separate entry of the source.

What was measured:
[1] = tested on: Neuro-2a cells; test: Test of relative metabolic activity (MTT) on Neuro-2a cells under normal conditions; assay type: cell-based, mouse; details: physiological conditions; 24 h; two concentrations; FIG. 2A
Method: (§1) A test based on the metabolic activity of the neurons was performed to evaluate the effect of the compounds of formula (I) on this metabolic activity. This test is based on the use of the tetrazolium salt MTT (3-(4,5-dimethylthiazol-2-yl)-2,5-diphenyltetrazolium bromide). Tetrazolium is reduced by mitochondrial succinate dehydrogenase in active live cells to formazan, a purple-colored precipitate. The amount of precipitate formed is proportional to the metabolic activity present in the culture. Thus, spectroscopic assay of the optical density at 550 nm makes it possible to determine the relative amount of metabolic activity and consequently the mitochondrial activity. This test on cortical neuron cultures was performed with different compounds in reference to Table 2 (DX101, DX243, DX244, DX245, DX249, DX301, DX302 and DX401) used at the same concentration (100 nM).
The same test described in Example 1 was performed on Neuro-2a cells—a mouse neuroblastoma cell line. Under physiological conditions, once cultured and at about 50% confluence, Neuro-2a cells were placed in contact for 24 h with two concentrations of the compounds DX243 and DX245.

[2] = tested on: Neuro-2a cells; test: Test of metabolic activity (MTT) on Neuro-2a cells after ethanol (EtOH) intoxication; assay type: cell-based, mouse; details: for metabolic activity after EtOH intoxication relative to untreated cells (MTT): 24 h treatment with 100 nM, EtOH 200 mM and 500 mM, FIG. 2B
Method: as §1
The same test described in Example 1 was performed on Neuro-2a cells—a mouse neuroblastoma cell line. It was shown that 24 h of intoxication with ethanol (EtOH) at high concentration (500 mM) in this cell line reduced the metabolic activity of these cells (χ=P value <0.0001 relative to the control).

[3] = tested on: Neuro-2a cells; test: MitoTracker study of mitochondria in Neuro-2a cells after ethanol intoxication; assay type: cell-based, mouse; details: after 24 h of ethanol intoxication (500 mm); FIG. 2C
[4] = tested on: SHSY5y; test: Test of mitochondrial dynamics (Mitotracker labeling) on SHSY5Y cell line; assay type: cell-based, human; details: 24 h, different concentrations, FIG. 3
Method: (§2) A human neuroblastoma cell line (SHSY5y) and also a myoblast cell line (C2C12) were cultured in DMEM™ medium (Ref. 21068028 ThermoFisher Scientific). Once in culture, these two cell lines were treated for 24 h with different concentrations of the compound DX243. A series of images was taken, labeling with Mitotracker™ (Ref. M7512, ThermoFisher Scientific), which highlights and visualizes the mitochondria present in these cells, and enables quantification of their amount.

[5] = tested on: C2C12; test: Test of mitochondrial dynamics (Mitotracker labeling) on C2C12 cell line; assay type: cell-based; details: 24 h, different concentrations, FIG. 3
Method: as §2

[6] = tested on: mitochondrial fission gene drp1; test: Inhibition of mitochondrial fission on cochlear explants (qRT-PCR); assay type: cell-based, mice; details: 100 nM; 24 h; relative to untreated cochleae; FIG. 4
Method: A cochlear explant model was developed. To obtain cochleae, the organ of hearing, in culture, cochleae from 3-day-old mice were microdissected. These cochleae were then placed in DMEM medium with addition of glucose (0.5%), N1 (0.5%), insulin (0.25%) and penicillin (0.1%), for 24 h. 100 nM of the compound DX243 were then added to this culture medium for 24 h. The cochleae were then recovered and the RNA extracted therefrom, so as to be able to analyze the modulation of several genes following treatment with the compound DX243.

[7] = tested on: dopaminergic neurons; test: Mitochondrial dynamics (mitochondrial mass) in dopaminergic neurons treated with MPP+; assay type: cell-based, rat; details: MPP+ 48 h; different concentrations during MPP+ and 48 h after removal; FIG. 5
Method: (§3) The mitochondrial effects of compound DX243 were tested in a model of dopaminergic neurons treated with MPP+ (1-methyl-4-phenylpyridinium), a mitochondrial toxin that increases mitochondrial stress and reduces the number of mitochondria. MPP+ is known for its deleterious effects on mitochondria (increased mitochondrial stress measured by the amount of cytochrome C, reduced mitochondrial number measured by means of the Mitotracker test). Dopaminergic neurons were obtained from microdissection of the midbrain of rat embryos cultured with Neurobasal™ Medium (Ref. 21103049 ThermoFisher Scientific) supplemented with B27 supplement 50× (Ref. 17504044 ThermoFisher Scientific), penicillin/streptomycin, L-glutamine and also BDNF (brain-derived neurotrophic factor) and GDNF (glial cell-derived neurotrophic factor).
(§4) These neurons were cultured for 5 days and then treated for 48 h with MPP+. These neurons were also exposed to different concentrations of the compound DX243 during the 48 h of MPP+ treatment, and also 48 h after MPP+ removal.

[8] = tested on: dopaminergic neurons; test: Mitochondrial stress in dopaminergic neurons treated with MPP+; assay type: cell-based, rat; details: 10 nM; FIG. 6
Method: as §3, §4

[9] = tested on: hippocampal neurons; test: Mitochondrial stress in hippocampal neurons treated with peptide Aβ 1-42; assay type: cell-based; details: 1 nM, FIG. 7
Method: The mitochondrial effects of compound DX243 were tested in a model of hippocampal neurons treated with peptide Aβ 1-42, this peptide inducing mitochondrial stress (represented by a reduction in mitochondrial surface area).

SMILES	metabolic activity of Neuro-2a cells (MTT) [1]	metabolic activity after EtOH intoxication (MTT) ([2]; 24 h EtOH 500 mM, 24 h treatment with 1 nM)	metabolic activity after EtOH intoxication relative to untreated cells (MTT) [2]	mitochondrial surface area (MitoTracker) [3]	mitochondrial amount (mass), Mitotracker labeling [4]	mitochondrial amount (mass), Mitotracker labeling [5]	expression of drp1 mRNA (qRT-PCR) [6]	mitochondrial mass [7]	mitochondrial stress engendered by MPP+ treatment [8]	mitochondrial surface area [9]
CC(C)CCC[C@@H](C)[C@H]1CC[C@H]2[C@@H]3C[C@@H](NCCCNCCCCN)[C@@]4(O)C[C@@H](O)CC[C@]4(C)[C@H]3CC[C@]12C [DX243, 5α-hydroxy-6β-[3-(4-aminobutylamino)propylamino]cholestan-3β-ol]	increase in the metabolic activity	partially recovered	significantly greater metabolic activity	increase in mitochondrial surface area	increase in mitochondrial amount (mass)	increase in mitochondrial amount (mass)	reduction in drp1 mRNA; also recorded: inhibition of expression	increasing and restoring mitochondrial mass	reduction in mitochondrial stress	restoring this decrease in mitochondrial surface area
CC(C)CCCC(C)[C@H]1CCC2C3C[C@@H](NCCCCNCCCN)[C@@]4(O)C[C@@H](O)CC[C@]4(C)C3CC[C@@]21C (stereo partly drawn) [DX245]	increase in the metabolic activity	–	significantly greater metabolic activity	–	–	–	–	–	–	–
